# US20120220594A1, “METHODS FOR TREATING CANCER IN PATIENTS HAVING IGF-1R INHIBITOR RESISTANCE” (Bristol-Meyers Squibb Company, priority 2009, published 2012)
# Read-outs that look alike come from different tables or passages of the source.
# Columns and labels:
# Rh41-807R cells = assay: 3H-thymidine incorporation cell proliferation assay in BMS-754807-resistant Rh41-807R cells; assay type: cell-based, human
# Text: (§1) Human rhabdomyosarcoma cell line Rh41 was provided by Dr. Lee Helman and grown in RPMI medium plus GLUTAMAX® supplemented with 10% fetal bovine serum (FBS), 10 mmol/L HEPES, penicillin, and streptomycin.
# Rh41 cells = assay: 3H-thymidine incorporation cell proliferation assay in parental Rh41 cells; assay type: cell-based, human
# Text: as §1
# Rh41-MAB391R cells = assay: 3H-thymidine incorporation cell proliferation assay in MAB391-resistant Rh41-MAB391R cells; assay type: cell-based, human; details: for IC50: read-out: IC50 (nM) Rh41-MAB391R
# Text: Human rhabdomyosarcoma cell line Rh41 was provided by Dr. Lee Helman and grown in RPMI medium plus GLUTAMAX® supplemented with 10% fetal bovine serum (FBS), 10 mmol/L HEPES, penicillin, and streptomycin. To develop acquired resistant cells to either BMS-754807, or mAB391 (R&D Systems, Inc., Minneapolis, Minn.), the sensitive Rh41 cells were exposed to the corresponding drug at the IC50 concentration and then at gradually increasing concentrations every other culture passage. The IC50 value to the compound was measured periodically during this treatment time until the resistance level reached a plateau.
# (§2) Human rhabdomyosarcoma cell line Rh41 was chosen in this study to develop acquired resistance because it expresses IGF-1R (Huang et al., Cancer Res., 69(1):161-170 (Jan. 1, 2009)), the target of BMS-754807 and MAB391; and is sensitive to both drugs (Carboni et al., Proceedings of the 100th Annual Meeting of the American Association for Cancer Research, 2009 Apr. 18-22; Denver, Colo., Abstract No. 1742). The acquired-resistant Rh41-807R and Rh41-MAB391R cell lines were developed using a stepwise exposure to increasing concentrations of either IGF-1R/IR inhibitor BMS-754807 or IGF-1R antibody MAB391 for extended periods of time until a resistance plateau was reach. […];
# [1] = target: type I-IGF receptor (IGF-1R), as expressed by human rhabdomyosarcoma Rh41 cells and the derived resistant lines (human) (UniProt P08069); assay: cell-based or functional assay
# Rh41 xenograft tumors = assay: In vivo xenograft tumor growth inhibition, Rh41; details: Rh41 xenograft tumors in nude mice
# Experimental: (§3) Tumor volume was measured to assess tumor growth inhibition.
# [2] = test system: Rh41-807R cells with PDGFR-α knockdown; assay: Proliferation assay in Rh41-807R cells transfected with PDGFR-α specific siRNA; details: Rh41-807R cells treated with PDGFR-α siRNA
# Experimental: (§4) RISC-free siRNA was transfected as the negative control (Dharmacon). Following the addition of the drugs, cells were incubated at 37° C. for 72 hours before cell growth was measured by incorporation of ^3H-thymidine as described for in vitro cellular proliferation assays.
# PDGFRα RNA in Rh41 cells = assay: Induction of PDGFRα expression in sensitive parental Rh41 cells (qRT-PCR); assay type: cell-based, human
# Experimental: FIGS. 3A-F show expression pattern comparisons of selected genes/proteins that uniquely changed expression only in 807R or in MAB391R. […] Insert: PDGFR-α protein expression pattern as detected by western blot. […] Cells starved for 24 hr, then stimulated with or without 50 ng/ml PDGF ligand fro 5 min. Cells were lyzed and 30 ug of total protein was used for western blot analyses. […] Insert: AXL protein expression as detected by western blot. […] Cells treated with 10 nM and 50 nM of BMS-754807 for 1, 2, 4, 8 and 24 hrs. PDGFRα RNA levels were measured by qRT-PCR and compared to the untreated time 0 control.
# Comparing genes expression profiles, the inventors found there were some key signaling pathways that were differentially expressed in Rh41-807R and Rh41-MAB391R cells. An interesting example was PDGFR-α, which had >89 fold increase in RNA expression in Rh41-807R cells but not in Rh41-MAB391R compared to the parental; and the induction of PDGFR-α was persistent even in cells out of BMS-754807 selection for 3 months (FIG. 3A). The expression pattern was also confirmed at protein levels (FIG. 3A); PDGFR-α was also constitutively activated in Rh41-807R cells (FIG. 3B). […] Other genes such as c-KIT, FGFR2 and EPHA3 had similar expression pattern as PDGFR-α (FIG. 3C). Several Eph receptor family members such as EPHA3, EPHA4 and EPHB2 as well as ligand EFNA3 were overexpressed in 807R.
# Rh1-807R cells = assay: 3H-thymidine incorporation cell proliferation assay in Rh1-807R cells; assay type: cell-based
# Experimental: (§5) Cells were plated at an optimized density in 96-well plates, incubated overnight at 37° C., and then exposed to a serial dilution of the drugs. After 72 hours incubation, cells were pulsed with 4 μCi/ml [^3H]-thymidine (Amersham Pharmacia Biotech, UK) for 3 hours, trypsinized, harvested onto […] ®-96 GF/B plates (PerkinElmer, Boston, Mass.); scintillation was measured on a TOPCOUNTO NXT (Packard, Conn.). […] The mean IC50 and standard deviation from multiple tests for each cell line were calculated.
# Geo cells = assay: 3H-thymidine incorporation cell proliferation assay in Geo cells; assay type: cell-based
# Experimental: as §5
# GEO-807R cells = assay: 3H-thymidine incorporation cell proliferation assay in GEO-807R cells; assay type: cell-based
# Experimental: as §5
# MCF-7-807R cells = assay: 3H-thymidine incorporation cell proliferation assay in MCF-7-807R cells
# Experimental: as §5
# [3] = test system: Rh41 cells with PDGFR-α knockdown; assay: Proliferation assay in Rh41 cells transfected with PDGFR-α specific siRNA; details: Rh41 sensitive parental cells
# Experimental: as §4
# [4] = test system: Rh41-807R xenograft tumors; assay: In vivo xenograft tumor growth inhibition, Rh41-807R; details: Rh41-807R xenograft tumors in nude mice
# Experimental: as §3
# SW403 cells = assay: 3H-thymidine incorporation cell proliferation assay in SW403 cells; assay type: cell-based; details: Homo sapiens, SW-403
# Experimental: as §5
# SW403-807R cells = assay: 3H-thymidine incorporation cell proliferation assay in SW403-807R cells; assay type: cell-based
# Experimental: as §5
# Rh41-807Rout cells = assay: Cell proliferation assay in Rh41-807Rout cells (out of drug selection for 3 months); assay type: cell-based, human; details: out of drug selection for 3 months of passages
# Text: as §2
# Rh1 cells = assay: 3H-thymidine incorporation cell proliferation assay in Rh1 cells; assay type: cell-based; details: Homo sapiens, RH-1
# Experimental: as §5
# [5] = Homo sapiens, Rh41-807R cells, cytotoxic agents and mTOR inhibitor, Table 2, read-out: Rh41-807R IC50
# [6] = cytotoxic agents and mTOR inhibitor
# [7] = Homo sapiens, Rh41 cells, cytotoxic agents and mTOR inhibitor, Table 2, read-out: Rh41 IC50
# [8] = Homo sapiens, Rh41-807R cells, PDGFR inhibitors, Table 7, read-out: Rh41-807R IC50
# [9] = Homo sapiens, Rh41 cells, PDGFR inhibitors, Table 7, read-out: Rh41 IC50
# type I-IGF receptor (IGF-1R), as expressed by human rhabdomyosarcoma Rh41 cells and the derived resistant lines (human), sequence (P08069 31-1367, change not shown): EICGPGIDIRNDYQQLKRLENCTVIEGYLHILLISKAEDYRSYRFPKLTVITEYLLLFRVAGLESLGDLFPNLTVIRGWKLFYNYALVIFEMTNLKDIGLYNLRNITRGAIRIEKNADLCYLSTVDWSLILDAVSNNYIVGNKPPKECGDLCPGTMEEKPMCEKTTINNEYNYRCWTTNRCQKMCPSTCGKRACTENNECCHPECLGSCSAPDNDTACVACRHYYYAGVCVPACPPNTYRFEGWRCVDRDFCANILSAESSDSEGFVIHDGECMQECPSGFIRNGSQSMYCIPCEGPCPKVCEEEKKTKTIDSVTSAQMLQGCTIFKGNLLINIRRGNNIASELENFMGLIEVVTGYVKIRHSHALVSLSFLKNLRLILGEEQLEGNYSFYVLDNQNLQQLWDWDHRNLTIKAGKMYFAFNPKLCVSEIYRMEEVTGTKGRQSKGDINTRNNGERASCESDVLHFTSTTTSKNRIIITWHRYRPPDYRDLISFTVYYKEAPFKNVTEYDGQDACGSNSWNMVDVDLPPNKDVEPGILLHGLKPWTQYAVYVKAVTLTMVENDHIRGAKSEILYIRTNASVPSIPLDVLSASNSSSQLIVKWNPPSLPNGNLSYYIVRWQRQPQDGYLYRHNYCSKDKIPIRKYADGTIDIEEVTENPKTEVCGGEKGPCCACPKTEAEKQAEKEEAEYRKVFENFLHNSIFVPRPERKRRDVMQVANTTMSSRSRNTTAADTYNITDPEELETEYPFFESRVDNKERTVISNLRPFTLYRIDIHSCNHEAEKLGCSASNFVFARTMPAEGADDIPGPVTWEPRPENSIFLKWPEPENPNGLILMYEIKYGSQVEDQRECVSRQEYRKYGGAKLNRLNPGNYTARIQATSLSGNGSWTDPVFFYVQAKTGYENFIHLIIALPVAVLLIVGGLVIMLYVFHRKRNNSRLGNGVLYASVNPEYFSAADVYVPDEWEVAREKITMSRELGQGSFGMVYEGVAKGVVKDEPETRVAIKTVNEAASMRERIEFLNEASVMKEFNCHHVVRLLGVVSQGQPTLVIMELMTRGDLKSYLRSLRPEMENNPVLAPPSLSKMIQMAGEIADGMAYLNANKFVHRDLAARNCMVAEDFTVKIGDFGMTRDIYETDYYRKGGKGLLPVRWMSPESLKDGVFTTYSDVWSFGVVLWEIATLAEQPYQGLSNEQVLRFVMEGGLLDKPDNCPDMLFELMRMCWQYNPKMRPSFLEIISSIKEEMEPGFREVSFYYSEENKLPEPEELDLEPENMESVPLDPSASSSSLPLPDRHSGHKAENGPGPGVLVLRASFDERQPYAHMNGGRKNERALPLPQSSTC
compound,measurement,setting,value
Nc1ccn([C@@H]2O[C@H](CO)[C@@H](O)C2(F)F)c(=O)n1 [Gemcitabine],IC50,Rh41-807R cells; [5],3 nM
same,sensitivity of Rh41-807R compared with the parental line,Rh41-807R cells; [6],very similar level of sensitivity as the parental line
same,IC50,Rh41 cells; [7],1.1 ± 0.4 nM
Cc1cc(N2CCOCC2)cc2[nH]c(-c3c(NC[C@@H](O)c4cccc(Cl)c4)cc[nH]c3=O)nc12 [BMS-536924],IC50,"Rh41-807R cells; Rh41-807R cells, 72 h, 3H-thymidine incorporation, Table 1, read-out: IC50 (nM) Rh41-807R",> 1000 nM
same,IC50,"Rh41 cells; Rh41 parental cells, 72 h, 3H-thymidine incorporation, Table 1, read-out: IC50 (nM) Rh41",31 nM
same,IC50,"Rh41-MAB391R cells; Rh41-MAB391R cells, 72 h, 3H-thymidine incorporation, Table 1",90.2 ± 2.2 nM
"MAB391 (R&D Systems), IGF-1R neutralizing antibody","IC50 (nM), growth inhibition of Rh41-807R cells, 3H-thymidine incorporation, 72 h",[1],> 2000 nM
same,"IC50 (nM), growth inhibition of Rh41-MAB391R cells, 3H-thymidine incorporation, 72 h",[1],> 2000 nM
same,"IC50 (nM), growth inhibition of Rh41 parental cells, 3H-thymidine incorporation, 72 h",[1],0.1 nM
"C[C@@]1(C(=O)Nc2ccc(F)nc2)CCCN1c1nc(Nc2cc(C3CC3)[nH]n2)c2cccn2n1 [BMS-754807, (2S)-1-(4-((5-cyclopropyl-1H-pyrazol-3-yl)amino)pyrrolo[2,1-f][1,2,4]triazin-2-yl)-N-(6-fluoro-3-pyridinyl)-2-methyl-2-pyrrolidinecarboxamide]",tumor growth inhibition (TGI),Rh41 xenograft tumors,73%
same,response to growth inhibition after PDGFR-α siRNA,[2],sensitive to growth inhibition
same,time at which induction of PDGFRα RNA was seen after treatment,PDGFRα RNA in Rh41 cells; Rh41 cells,4 h
same,induction of PDGFR-α expression,"PDGFRα RNA in Rh41 cells; Rh41 sensitive parental cells, 10 nM and 50 nM",dose-dependent
same,IC50,"Rh1-807R cells; Homo sapiens, RH-1, BMS-754807-resistant Rh1 cells, maintenance conc. 120, Table 8, read-out: IC50",1800 nM
same,IC50,"Rh1-807R cells; Rh1-807R cells, Table 9, read-out: IGF-1R inhibitor Compound (IC50)",1800 ± 1390 nM
same,Relative resistance,"Rh1-807R cells; fold change in IC50, resistant vs parental Rh1 cells",66.5X
same,IC50,"Geo cells; Geo cells, Table 9, read-out: IGF-1R inhibitor Compound (IC50)",350 nM
same,IC50,"Geo cells; Geo parental cells, Table 8, read-out: Parental IC50",350 nM
same,IC50,"GEO-807R cells; BMS-754807-resistant Geo cells, maintenance conc. 2000, Table 8, read-out: IC50",1230 nM
same,IC50,"GEO-807R cells; GEO-807R cells, Table 9, read-out: IGF-1R inhibitor Compound (IC50)",1230 ± 251 nM
same,Relative resistance,"GEO-807R cells; fold change in IC50, resistant vs parental Geo cells",3.5X
same,IC50,"MCF-7-807R cells; Homo sapiens, MCF7",735 nM
same,Relative resistance,"MCF-7-807R cells; fold change in IC50, resistant vs parental MCF-7 cells",46X
same,IC50,MCF-7-807R cells; read-out: IGF-1R inhibitor Compound (IC50),972 ± 400 nM
same,"sensitivity between untransfected, control siRNA and PDGFR-α-specific siRNA transfected cells",[3],no significant differences in the sensitivity
same,tumor growth inhibition (TGI),[4],35%
same,IC50,"Rh41-807R cells; Homo sapiens, Rh41",811 nM
same,IC50,"Rh41-807R cells; Homo sapiens, read-out: IC50 (nM) Rh41-807R",811 nM
same,IC50,"Rh41-807R cells; Homo sapiens, read-out: IGF-1R inhibitor Compound (IC50)",811 nM
same,Relative resistance,"Rh41-807R cells; fold change in IC50, resistant vs parental Rh41 cells",162X
same,IC50,"SW403 cells; SW403 cells, Table 9, read-out: IGF-1R inhibitor Compound (IC50)",220 nM
same,IC50,"SW403 cells; SW403 parental cells, Table 8, read-out: Parental IC50",220 nM
same,IC50,"SW403-807R cells; Homo sapiens, SW-403, BMS-754807-resistant SW403 cells, maintenance conc. 500, Table 8, read-out: IC50",979 nM
same,IC50,"SW403-807R cells; SW403-807R cells, Table 9, read-out: IGF-1R inhibitor Compound (IC50)",979 ± 528 nM
same,Relative resistance,"SW403-807R cells; fold change in IC50, resistant vs parental SW403 cells",4.5X
same,IC50,"Rh41 cells; Homo sapiens, Rh41, read-out: IC50 (nM) Rh41",5 nM
same,IC50,"Rh41 cells; Homo sapiens, Rh41, read-out: IGF-1R inhibitor Compound (IC50)",5 nM
same,IC50,"Rh41 cells; Homo sapiens, Rh41, read-out: Parental IC50 (nM)",5 nM
same,resistance of Rh41-807Rout,Rh41-807Rout cells,significant level of resistance
same,IC50,Rh41-MAB391R cells; Homo sapiens,27 nM
same,activity in the Rh41-MAB391R model,Rh41-MAB391R cells; growth inhibited to a comparable level as the parental cells,relatively active
same,IC50,"Rh1 cells; Rh1 cells, Table 9, read-out: IGF-1R inhibitor Compound (IC50)",27 nM
same,IC50,"Rh1 cells; Rh1 parental cells, Table 8, read-out: Parental IC50",27 nM
CN1CCN(c2ccc3nc(-c4c(N)c5c(F)cccc5[nH]c4=O)[nH]c3c2)CC1 [Dovitinib],IC50,Rh41-807R cells; [8],722 ± 264 nM
same,IC50,Rh41 cells; [9],6456 ± 60 nM
CO[C@H]1C[C@@H]2CC[C@@H](C)[C@@](O)(O2)C(=O)C(=O)N2CCCC[C@H]2C(=O)O[C@H]([C@H](C)C[C@@H]2CC[C@@H](O)[C@H](OC)C2)CC(=O)[C@H](C)/C=C(\C)[C@@H](O)[C@@H](OC)C(=O)[C@H](C)C[C@H](C)/C=C/C=C/C=C/1C [Rapamycin],IC50,Rh41-807R cells; [5],< 0.32 nM
same,IC50,Rh41 cells; [7],< 0.32 nM
CCN(CC)CCNC(=O)c1c(C)[nH]c(/C=C2\C(=O)Nc3ccc(F)cc32)c1C [Sunitinib],IC50,Rh41-807R cells; [8],1020 ± 321 nM
same,IC50,Rh41 cells; [9],1400 ± 634 nM
"CC(=O)O[C@H]1C(=O)[C@@]2(C)[C@H]([C@H](OC(=O)c3ccccc3)[C@]3(O)C[C@H](OC(=O)[C@H](O)[C@@H](NC(=O)c4ccccc4)c4ccccc4)C(C)=C1C3(C)C)[C@]1(OC(C)=O)CO[C@@H]1C[C@@H]2O [TAXOL ®, paclitaxel]",IC50,Rh41-807R cells; [5],1.8 ± 0.3 nM
same,sensitivity of Rh41-807R compared with the parental line,Rh41-807R cells; [6],very similar level of sensitivity as the parental line
same,IC50,Rh41 cells; [7],2.1 ± 0.4 nM
C/C(=C\c1csc(C)n1)[C@@H]1C[C@@H]2O[C@]2(C)CCC[C@H](C)[C@H](O)[C@@H](C)C(=O)C(C)(C)[C@@H](O)CC(=O)N1 [Ixabepilone],IC50,Rh41-807R cells; [5],3.4 ± 0.4 nM
same,IC50,Rh41 cells; [7],4 nM
CC[C@]12C=CCN3CC[C@@]4(c5cc([C@@]6(C(=O)OC)C[C@@H]7C[C@@H](C(C)(F)F)CN(Cc8c6[nH]c6ccccc86)C7)c(OC)cc5N(C)[C@H]4[C@@](O)(C(=O)OC)[C@@H]1OC(C)=O)[C@@H]32 [Vinflunine],IC50,"Rh41-807R cells; Homo sapiens, read-out: Rh41-807R IC50 (nM)",21 ± 3 nM
same,IC50,"Rh41 cells; Homo sapiens, Rh41, read-out: Rh41 IC50 (nM)",28 ± 2.8 nM
CC(=O)O[C@@]12CO[C@@H]1C[C@H](O)[C@@]1(C)C(=O)[C@H](O)C3=C(C)[C@@H](OC(=O)[C@H](O)[C@@H](NC(=O)OC(C)(C)C)c4ccccc4)C[C@@](O)([C@@H](OC(=O)c4ccccc4)[C@H]21)C3(C)C [Taxotere],IC50,Rh41-807R cells; [5],0.5 nM
same,IC50,Rh41 cells; [7],0.5 nM
CNC(=O)c1cc(Oc2ccc(NC(=O)Nc3ccc(Cl)c(C(F)(F)F)c3)cc2)ccn1 [Sorafenib],IC50,Rh41-807R cells; [8],804 ± 210 nM
same,IC50,Rh41 cells; [9],> 2000 nM
